pEC50: −log10 of the molar value. Entries after “also recorded” stand apart in the source; their conditions may differ. Read-outs that look alike come from different tables or passages of the source.

Data set [1] concerns mechanical hypersensitivity after spinal nerve ligation in the rat. In words: spinal nerve ligation model of neuropathic pain, von Frey withdrawal threshold. The format is in vivo. Particulars: for dose returning sensitivity (withdrawal threshold) to normal: rat. An excerpt: Following Animal Care and Use Committee approval, mechanical hypersensitivity was generated in male Sprague-Dawley rats as described in the following paper. (Kim,S. H. and Chung, J. M., An experimental model for peripheral neuropathy produced by segmental spinal nerve ligation in the rat, Pain, 50 (1992) 355-363. Briefly, under general anesthesia with inhalational halothane, the left L5 and L6 spinal nerves were identified through a small laminotomy and tightly ligated. Approximately one week later, an intrathecal catheter was placed under general anesthesia by insertion under direct vision of a polyethylene catheter through a small slit in the dura at the cisterna magnum and advanced 8.5 cm such that the catheter tip resided in the lower lumbar intrathecal space. Animals were studied approximately one week later.
Ligation of the lumbar spinal nerves results in a primarily unilateral increase in the sensitivity to light touch on the operated side. Sensitivity was assessed via application of calibrated von Frey filaments. The withdrawal threshold was determined using an up down method as described in Chaplan, S. R., Bach, F. W., Pogrel, J. W., Chung, J. M., and Yaksh, T. L., Quantitative assessment of tactile allodynia in the rat paw, J. Neurosci. Methods, 53 (1994) 55-63.
Von Frey filaments are scientific apparatus designed to apply a pre-determined pressure to a surface. These filaments are flexible bristles with a flat tip. The applied pressure is determined by the diameter of the filament.
In these studies, the animals are placed on top of a wired cage. The goal of these studies is to determine the pressure at which the animal perceives the pressure applied as painful and lifts its foot. The scientist determines the discomfort pressure threshold by pressing the tip of von Frey filaments, one filament at a time, to the bottom of the foot through the wired cage floor. When a slight pressure is applied to the underside of the foot, the animal feels the sensation but it will not lift its foot because this sensation is not painful, or uncomfortable.
In a normal animal, the threshold for discomfort is approximately 35 g pressure. In an animal whose foot is rendered more sensitive to pressure, the withdrawal threshold is less than 4 g. That is, a pressure that is not perceived as pain in the unaltered, control foot will be perceived as a painful stimulus in the surgically altered foot.
Mechanical withdrawal threshold was determined before and at intervals after intrathecal injection of Compound T62, 1-5 μg. […] In the study, the investigator was blinded to the dose administered. Compound T62 was dissolved in cyclodextrin, which had no effect on withdrawal threshold when administered alone.
Animals received 6 injections, each separated by a minimum of 4 days to prevent development of tolerance. The withdrawal threshold to mechanical stimulation with von Frey filaments was determined before and at intervals of […] following intrathecal injection, then again at 20 hours following injection. A dose response was determined using the time of peak effect (2 hr for each compound) and the ED50 determined by linear regression.
The ED50 for the mixture (total of each component combined) was determined by linear regression, an isobologram constructed, and the observed ED50 was compared to the theoretical ED50 by a t-test as previously described in Tallarida, R. J., Statistical analysis of drug combinations for synergism, Pain, 49 (1992) 93-97. In order to determine the site of action of Compound T62, two experiments were performed. […]
Compound T62 was dissolved in 45% […] (RBI, Natick, Mass. ). Drugs were administered intrathecal in a 5 μl volume followed by 10 μl of saline to flush the catheter.
Data are presented as median±25th and 75th percentile (for raw withdrawal thresholds) or by mean±SE. Linear regression was used to calculate the ED50 for each drug alone and for the fixed ratio combination. […]

Data set [2] addresses T1, A1 adenosine receptor (Cavia porcellus, UniProt P47745).
T1 construct: functional studies conducted in the isolated guinea pig left atrium and isolated ileum; from tissue; host or cells: isolated guinea pig ileum
T1 sequence (P47745 1-326): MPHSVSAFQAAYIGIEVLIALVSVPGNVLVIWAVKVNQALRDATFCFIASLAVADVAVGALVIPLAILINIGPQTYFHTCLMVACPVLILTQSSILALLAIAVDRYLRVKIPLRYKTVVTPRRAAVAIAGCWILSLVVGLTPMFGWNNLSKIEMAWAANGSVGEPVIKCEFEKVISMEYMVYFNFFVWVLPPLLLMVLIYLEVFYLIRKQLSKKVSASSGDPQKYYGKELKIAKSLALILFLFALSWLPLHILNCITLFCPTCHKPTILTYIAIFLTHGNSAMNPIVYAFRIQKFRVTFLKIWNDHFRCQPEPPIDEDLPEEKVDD
Particulars: isolated guinea pig left atrium; cited from earlier work.

The target of data set [3] is T1, A1 adenosine receptor. Particulars: isolated ileum; cited from earlier work.
In data set [4] the target is T2, A1 adenosine receptor (Rattus norvegicus, UniProt P25099).
T2 construct: from tissue; host or cells: rat brain
T2 sequence (P25099 1-326): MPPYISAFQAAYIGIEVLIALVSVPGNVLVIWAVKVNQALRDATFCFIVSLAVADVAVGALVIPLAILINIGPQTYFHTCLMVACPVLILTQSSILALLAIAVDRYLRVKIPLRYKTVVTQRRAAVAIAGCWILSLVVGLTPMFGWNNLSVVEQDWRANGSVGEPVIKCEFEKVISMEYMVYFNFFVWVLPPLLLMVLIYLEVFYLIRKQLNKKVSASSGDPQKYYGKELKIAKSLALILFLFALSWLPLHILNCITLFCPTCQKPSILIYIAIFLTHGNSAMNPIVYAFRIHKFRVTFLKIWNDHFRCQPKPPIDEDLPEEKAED
Particulars: rat brain, cited from earlier work.

Data set [5] concerns carrageenan-induced hyperalgesia in rats. Nature of the data set: carrageenan paw model of inflammatory pain, Hargreaves thermal withdrawal. Format: in vivo, rat. The method, then:
Compound T62 was tested for its efficacy in treating inflammatory pain by use of the carrageenan paw model. Carrageenan is a water-extractable polysaccharide obtained from seaweeds. […] Carrageenan-induced hyperalgesia is believed to occur as a consequence of sensitization of primary afferent nociceptors and neuron plasticity intrinsic to the spinal cord.
Animals were prepared with chronic lumbar intrathecal catheters. Baseline measurement of hindpaw withdrawal latency to thermal stimulation were obtained on a Hargreaves device. Animals received a single intrathecal (IT) injection of Compound T-62 ranging from 0.5 to 40 μg. Withdrawal thresholds were measured on a Hargreaves device every 30 minutes for three hours.

Data set [6] deals with phenylbenzoquinone-induced writhing in mice. Nature of the data set: phenylbenzoquinone (PBQ) writhing test. Format: in vivo, mouse. The method, then: Testing for use of Compound T62 in treatment of persistent chemical pain was performed following the phenylbenzoquinone (PBQ) writhing tests. This method detects general analgesic activity. Mice were injected with phenylbenzoquinone (PBQ) (1.25 mg/kg i.p.). […] The number of writhes was counted for 10 minutes beginning 5 minutes after injection of PBQ. 8 mice were studied for each treatment group and the test was performed blind.

In a further data set the test system is mouse. Format: in vivo. Particulars: 1024 mg/kg i.p., listed as Compound T-62. How it is done: As indicated above, Compound T62 is an effective treatment for neuropathic pain at a dose of 15 mg/kg by intraperitoneal (i.p.) injection. In addition, the safety of T62 was evaluated at 64, 128, 256, 512 and 1024 mg/kg (Table 1).
In data set [7] the target is T3, human recombinant A1 adenosine receptors (Homo sapiens, UniProt P30542).
T3 construct: expressed in transfected cells; host or cells: CHO cells (CHO: huA1)
T3 sequence (P30542 1-326): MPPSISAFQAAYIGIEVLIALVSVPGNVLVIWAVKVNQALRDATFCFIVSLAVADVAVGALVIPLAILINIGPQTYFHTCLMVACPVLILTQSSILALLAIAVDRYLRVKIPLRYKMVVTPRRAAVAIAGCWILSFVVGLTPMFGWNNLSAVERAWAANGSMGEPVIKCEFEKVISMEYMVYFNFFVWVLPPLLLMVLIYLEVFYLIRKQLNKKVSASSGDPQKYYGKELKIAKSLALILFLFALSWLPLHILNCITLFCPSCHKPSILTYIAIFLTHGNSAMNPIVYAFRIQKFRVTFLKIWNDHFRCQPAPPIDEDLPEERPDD
Nature of the data set: cyclic AMP production in CHO cells expressing the A1 adenosine receptor. Format: cell-based. The method, then: Cells were removed from liquid nitrogen storage when needed, and grown in Ham's F-12 culture medium with 10% fetal bovine serum and 0.5 mg/ml of antibiotic G-418. Aliquots of cells were placed into 12-well cultured plates with culture medium, serum, and antibiotic for 48-72 hours, by which time the cells had grown to a confluent monolayer.
To begin an experiment, growth medium was removed from the culture plates and cells were washed once with Hanks' buffered saline solution. […] After 6 min of incubation at 36° C. in the presence of drugs, the incubation solution was removed and hydrochloric (final concentration, 50 mM) was added to terminate drug action.
The content of cAMP in acidified extracts of cells was determined by radioimmunoassay as previously described (12). The compounds listed in reference 7 (U.S. Pat. No. 5,939,432) relating to allosteric enhancers, were tested using this method.
Because the magnitude of the effects of allosteric enhancers on cells changed with time and batch of cells, the actions of each test compound to enhance the effect of CPA (and thus reduce cAMP content of CHO cells) were normalized to the response of cells to 10 μM PD 81,723. […] Enhancement by Compound T62 began at 10 nM. There was no antagonism of this effect even at 10 μM of Compound T62.

Data set [8] has as its target T4, A1 receptor in rat forebrain membranes (Rattus norvegicus, UniProt P25099).
T4 construct: from tissue; host or cells: rat forebrain membranes
T4 sequence (P25099 1-326): T2 sequence (P25099 1-326)
The note with it: compound 30 in reference (5), Bruns et al.; read-out: ED50 as an enhancer; cited from earlier work.

With `Nc1ncnc2c1ncn2[C@@H]1O[C@H](CO)[C@@H](O)[C@H]1O` [adenosine, reference compound], in data set [1] (intrathecal injection), the “time of peak effect” value was 2 h and the “dose returning sensitivity (withdrawal threshold) to normal” value turned out to be 30 µg.
With `CCOC(=O)N1CCc2c(sc(N)c2C(=O)c2ccccc2)C1` [PD 78,416], the “enhancement of the effect of the agonist CPA” value is “enhanced the effect” on A1 adenosine receptor [2] and “failed to enhance” at A1 adenosine receptor [3]. Also, the “enhancement of [3H]CHA binding” value at A1 adenosine receptor [4] (competition studies) is on record as “not observed”. For the same compound, on A1 adenosine receptor [4], the “effect on dissociation of [3H]CHA binding” value is reported as “retards the dissociation”.
As to `Nc1sc2c(c1C(=O)c1ccc(Cl)cc1)CCCC2` [Compound T62, (2-Amino-4,5,6,7-tetrahydrobenzo[b]thiophen-3-yl)(4-chlorophenyl)methanone], the “dose sufficient to completely reverse hypersensitivity of the inflamed foot to pre-carrageenan levels” value in [5] (intrathecal, rats with 2 mg intraplantar carrageenan, n=4) is 1 µg. Also, the “effect on withdrawal thresholds” value in data set [5] (normal rats, intrathecal 0.5 to 40 μg) was “no significant effect”. Moreover, the “NUMBER OF WRITHES (5 to 1 5 min after phenylbenzoquinone) mean ± s.e.m.” value in [6] (128 mg/kg i.p. −30 minutes) is listed as 13.9 ± 3.4; in data set [6] (128 mg/kg i.p. −1 hour), 10.9 ± 2.6; in data set [6] (128 mg/kg i.p. −2 hours) it was 17.3 ± 2.0; in data set [6] (128 mg/kg i.p. −4 hours), 13.1 ± 3.5; in data set [6] (128 mg/kg i.p. −8 hours), 15.3 ± 4.1; in data set [6] (512 mg/kg i.p. −30 minutes) it was 5.9 ± 2.2. The “NUMBER OF WRITHES (5 to 1 5 min after phenylbenzoquinone) mean ± s.e.m.” value in [6] (512 mg/kg i.p. −1 hour) came out at 6.4 ± 1.0; in data set [6] (512 mg/kg i.p. −2 hours) it was 3.5 ± 1.8; in data set [6] (512 mg/kg i.p. −4 hours), 4.8 ± 1.5; in data set [6] (512 mg/kg i.p. −8 hours) it was 6.0 ± 1.9. In addition, the “percent change from control” value was −18% in [6] (128 mg/kg i.p. −30 minutes); −58% in data set [6] (128 mg/kg i.p. −1 hour); −38% in data set [6] (128 mg/kg i.p. −2 hours); −36% in data set [6] (128 mg/kg i.p. −4 hours); “+11%” in data set [6] (128 mg/kg i.p. −8 hours); −65% in data set [6] (512 mg/kg i.p. −30 minutes). In addition, the “percent change from control” value in data set [6] (512 mg/kg i.p. −1 hour) was −75%; in [6] (512 mg/kg i.p. −2 hours), −87%; in data set [6] (512 mg/kg i.p. −4 hours) it was −77%; in data set [6] (512 mg/kg i.p. −8 hours), −56%. In addition, the “dose required for efficacy” value in data set [6] (intraperitoneal, mice, chemically induced pain) is on record as 128 mg/kg; in [1] (intraperitoneal, rats, neuropathic pain) it was 15 mg/kg. The Irwin test observations entry in the data set with mouse was “tremor and tip-toe gait”. Further, the “enhancer potency compared to PD 81,723” value in data set [7] (CHO:huA1 cells cAMP) is “more potent enhancer than PD 81,723”. Moreover, the “concentration at which enhancement of the CPA induced inhibition of cyclic AMP production began” value in data set [7] (CHO:huA1 cells, forskolin 1 μM, CPA, normalized to 10 μM PD 81,723) turned out to be 10 nM. Besides, the “antagonism of the A1 receptor” value in [7] (at 10 μM Compound T62) is “does not antagonize; also recorded: no antagonism”. Besides, the pEC50 in [8] was 4.82. For the same compound, the “duration of effect on withdrawal threshold” value is on record as “at least 4 hours” in data set [1] (IP injection, 15 mg/kg) and “over 4 hours” in data set [1] (intrathecal injection). Further, the effect on hypersensitivity entry in data set [1] (intraperitoneal injection, 15 mg/kg) was “effective to reduce hypersensitivity”. Further, the “effect of intraperitoneal Compound T62 after A1 antagonist” value in data set [1] (intrathecal DPCPX (5 μg)) is recorded as “blocked”. Moreover, the motor effect entry in data set [1] (intrathecal doses larger than 1-5 μg) was “obvious motor blockade”. Besides, in [1] (intrathecal injection), the “time of peak effect” value is 2 h. For the same compound, the “dose returning sensitivity (withdrawal threshold) to normal” value in [1] (intrathecal injection) was determined as 5 µg.

The record behind these values is patent publication US6489356B2, “Method for treating pain in humans” (priority 2000, dated 2002).
